Experimental findings from PMC11538636, “Electro‐Driven Multi‐Enzymatic Cascade Conversion of CO2 to Ethylene Glycol in Nano‐Reactor” (Advanced Science, 2024) are described below.

The term Km denotes the concentration of substrate that gives half-maximal velocity.

One assay addresses T1, BmFADH (Burkholderia multivorans, UniProt A0A0H3KP42).
T1 construct: gene fdhA2; recombinant in E. coli BL21(DE3), pETDuet, C-terminal His-tag; Zn2+ dependent
T1 sequence (A0A0H3KP42 1-398): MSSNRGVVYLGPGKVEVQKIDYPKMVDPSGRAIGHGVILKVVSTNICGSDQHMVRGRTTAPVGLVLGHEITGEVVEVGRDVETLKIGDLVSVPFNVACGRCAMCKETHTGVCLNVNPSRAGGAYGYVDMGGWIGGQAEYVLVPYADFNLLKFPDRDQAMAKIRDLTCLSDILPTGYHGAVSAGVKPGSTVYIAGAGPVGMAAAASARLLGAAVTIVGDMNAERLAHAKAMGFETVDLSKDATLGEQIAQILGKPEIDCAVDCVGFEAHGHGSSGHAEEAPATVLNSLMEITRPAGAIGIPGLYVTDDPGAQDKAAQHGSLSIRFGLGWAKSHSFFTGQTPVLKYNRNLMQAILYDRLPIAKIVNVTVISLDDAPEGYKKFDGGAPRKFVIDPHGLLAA
As to the kind of experiment: NADH consumption at […] nm. The class given is biochemical. The following applies: 1 mM NADH, 5 mM NaMeO2, 50 mM phosphate pH 7.5, 2 h.

The test system of another assay is T2, GoADH.
T2 construct: gene adh; recombinant in E. coli BL21(DE3), pETDuet, C-terminal His-tag; codon-optimized gene; Zn2+ dependent
In words: steady-state kinetics, Michaelis-Menten fit. In kind it is biochemical, Gluconobacter oxydans. The following applies: NADH co-substrate; free enzyme; glycolaldehyde reduction.

Take `NC(=O)C1=CN([C@@H]2O[C@H](COP(=O)(O)OP(=O)(O)OC[C@H]3O[C@@H](n4cnc5c(N)ncnc54)[C@H](O)[C@@H]3O)[C@@H](O)[C@H]2O)C=CC1` [NADH]: the “NADH consumption at 340 nm” value on BmFADH was “activity of PaFDH, BmFADH, and GoADH was determined by measuring the consumed NADH”. As to `O=CCO` [glycolaldehyde], the Michaelis constant (Km) in the assay on GoADH amounted to 432 µM.
